# Reference: patent publication US20040067932A1 (priority 2002, published 2004)
# Where two headings read alike, the source gives them in different places.
# What was measured:
# [1] = system: Jurkat cells; assay: Flow cytometry (PI) G2/M accumulation and sub-G1 apoptosis, Jurkat; format: cell-based, human; conditions: DMSO (no antagonist); for EC50: Homo sapiens
# Description: (§1) A375 and NCTC2544 adherent cells were trypsinized, mixed with floating cells, washed with PBS and permeabilised in 70% (vol/vol) ethanol/PBS solution at 4° C. for at least 24 hours. Jurkat, HeL023 and PBMC cells were centrifuged for 10 minutes at 1000×g. The cell pellet was then resuspended and permeabilised in 70% (vol/vol) ethanol/PBS solution at 4° C. for at least 24 hours. The cells were washed with PBS and the DNA was stained with a PBS solution, containing 20 μg/ml of propidium iodide and 100 μg/ml of RNAse, at room temperature for 30 minutes. Cells were analysed by FACScan (Becton-Dickinson) and the content of DNA was evaluated by the Cell-LISYS program (Becton-Dickinson). Cell distribution among cell cycle phases and apoptotic cells was evaluated as previously described (Secchiero et al., 2001). Briefly, the cell cycle distribution is shown as the percentage of cells containing 2n (G1 phase), 4n (G2 and M phases), 4n>x>2n. DNA amount (S phase) judged by propidium iodide staining. The apoptotic population is the percentage of cells with DNA content lower than 2n.
# (§2) To verify the role of A3 receptor antagonists on paclitaxel and vindesine mediated alteration of cell proliferation and apoptosis, testing was performed with additional cell lines. […] Experimental conditions are similar to those for the A375 cell testing.
# [2] = system: A375 cells; assay: Flow cytometry (PI) G2/M accumulation and sub-G1 apoptosis, A375; format: cell-based, human; conditions: for EC50: Homo sapiens, A-375, 24 h
# Description: as §1
# Cell proliferation and apoptosis are quantified by flow cytometer analysis after propidium-iodide (PI) DNA staining.
# [3] = system: PBMC blasts; assay: Flow cytometry (PI) G2/M accumulation, PBMC blasts; format: cell-based; conditions: Homo sapiens, DMSO (no antagonist)
# Description: Cells are passaged two or three times weekly at a ratio between 1:5 and 1:10. Lymphocytes were isolated from buffy coats kindly provided by the Blood Bank of the University Hospital of Ferrara. Blood donated by healthy volunteers, after informed consent for research was obtained. Lymphocytes were isolated by density gradient centrifugation (Ficoll/Histopaque 1.077 g/ml). The cells are stimulated with purified phytohemoagglutinin (1 μg/ml) and expanded in RPMI medium added of interleukin 2 (20 Units/ml) and 10% fetal calf serum.
# Jurkat, HeL023 and PBMC cells were centrifuged for 10 minutes at 1000×g. The cell pellet was then resuspended and permeabilised in 70% (vol/vol) ethanol/PBS solution at 4° C. for at least 24 hours. The cells were washed with PBS and the DNA was stained with a PBS solution, containing 20 μg/ml of propidium iodide and 100 μg/ml of RNAse, at room temperature for 30 minutes. Cells were analysed by FACScan (Becton-Dickinson) and the content of DNA was evaluated by the Cell-LISYS program (Becton-Dickinson). Cell distribution among cell cycle phases and apoptotic cells was evaluated as previously described (Secchiero et al., 2001). Briefly, the cell cycle distribution is shown as the percentage of cells containing 2n (G1 phase), 4n (G2 and M phases), 4n>x>2n. DNA amount (S phase) judged by propidium iodide staining. […]
# [4] = system: HeL023 cells; assay: Flow cytometry (PI) G2/M accumulation and sub-G1 apoptosis, HeL023; format: cell-based, human; conditions: DMSO (no antagonist); for EC50: Homo sapiens
# Description: as §1, §2
# [5] = system: NCTC2544 cells; assay: Flow cytometry (PI) G2/M accumulation and sub-G1 apoptosis, NCTC2544; format: cell-based, human; conditions: NCTC 2544, DMSO (no antagonist); for EC50: Homo sapiens
# Description: as §1, §2
# [6] = system: A375 melanoma cells; assay: Colony formation assay of A375 cells; format: cell-based, human; conditions: paclitaxel 0.75 ng/ml alone, 7 days
# Description: FIG. 2 illustrates colony formation assay of A375 cells. Cells were treated with different drugs and colonies were counted after 7 days. The values represent the mean ±SEM of four independent experiments. D=DMSO (control); T=paclitaxel, 0.75 ng/ml; M=MRE 3008F20, 10 μM; C=CI-IB-MECA, 10 μM; TM=paclitaxel plus MRE 3008F20; TC=paclitaxel plus CI-IB-MECA treated cells. *P<0.01 TM versus T. Analysis was by ANOVA followed by Dunnett's test.;
# Control plates received the same volume of DMSO alone. After 7 days of growth at 37° C. in humidified atmosphere containing 5% CO2, the cells were fixed with absolute methanol for 5′ and stained with 1/10 Giemsa/phosphate-buffered saline (PBS) staining solution for 10 minutes. Staining solution was removed and colonies of greater than 30 cells were scored as survivors. For each treatment, six individual wells were scored.
# Colony formation assay experiments were performed on A375 melanoma cells treated with increasing concentration of paclitaxel (0.25-75 ng/ml). A3 stimulation is achieved with the selective agonist CI-IB-MECA while A3 blockade is obtained with the selective antagonist MRE 3008F20. […] (FIG. 2)
# [7] = system: human lung carcinoma SKMES; assay: MTT growth inhibitory assay, SKMES; format: cell-based
# Description: (§3) One of the growth inhibitory assays is the MTT assay. Cells (1000-1500 cells/well) are seeded in a 96-well micro culture plate in a total volume of 100 μl/well. After overnight incubation in a humidified incubator at 37° C. with 5% CO2-95% air, chemotherapeutic drug solutions diluted with culture medium at various concentrations are added in the amount of 100 μl to each well. The plates are placed in a humidified incubator at 37° C. with 5% CO2-95% air for 7-10 days. The plates are then centrifuged briefly and 100 μl of the growth medium is removed. Cell cultures are incubated with 50 μl of MTT [3-(4,5-dimethylthiazol-2-yl)-2,5-diphenyl-tetrazolium bromide] reagent (1 mg/ml in Dulbecco's phosphate-buffered saline) for 4 hr at 37° C. The resultant purple formazan precipitate is solubilized with 200 μl of 0.04 N HCl in isopropanol. Absorbance is measured at a wavelength of 595 nm and at a reference wavelength of 655 nm using a Bio-Rad Model 3550 Microplate Reader. Preferably, all tests are run in duplicate for each dose level.
# (§4) The EZED50 computer program estimates the concentration of agent that inhibits cell growth by 50% as compared to the control cells. This is termed the IC50 and is determined by curve fitting test data using the following four logistic equation. [formula]
# (§5) Inhibitory assay testing is also used to determine enhanced therapeutic effects from combining A3 receptor antagonists with other tumor inhibiting agents. The inhibitory cell growth assays are run with and without selected concentrations of A3 receptor antagonists. An enhanced therapeutic effect is present when the IC50 of the tumor inhibiting agent is lower with the A3 receptor antagonist.
# (§6) Quantitatively, the enhancement factor (EF) is calculated by dividing the IC50 value of the tumor inhibiting agent for a tumor cell line by the IC50 value of the agent with A3 receptor antagonist for the same cell line: [formula]
# [8] = system: human pancreatic cancer Panc-1; assay: MTT growth inhibitory assay, Panc-1; format: cell-based
# Description: as §3, §4, §5, §6
# [9] = system: human melanoma A375 cell line; assay: MTT growth inhibitory assay, A375; format: cell-based; conditions: for IC50: Homo sapiens
# Description: as §3, §4, §5, §6
# [10] = system: human colon carcinoma HT29 cell line; assay: MTT growth inhibitory assay, HT29; format: cell-based; conditions: HT-29
# [11] = read-out: vindesine EC50 (G2/M accumulation)
# [12] = read-out: paclitaxel EC50 (G2/M accumulation)
structure (smiles),measurement,setting,value
CC[C@]1(O)C[C@@H]2CN(CCc3c([nH]c4ccccc34)[C@@](C(=O)OC)(c3cc4c(cc3OC)N(C)[C@H]3[C@@](O)(C(N)=O)[C@H](O)[C@]5(CC)C=CCN6CC[C@]43[C@@H]65)C2)C1 [vindesine],EC50,[1]; [11],0.93 ± 0.08 nM
same,"vindesine ECMAX (sub-G1, maximal apoptosis)","[2]; A375, DMSO (no antagonist)",3.54 ± 0.42 nM
same,EC50,[2]; [11],1.9 ± 0.2 nM
same,EC50,[3]; [11],1.1 ± 0.9 nM
same,vindesine ECMAX (sub-G1),[4],33.11 ± 4.02 nM
same,EC50,[4]; [11],25.8 ± 3.25 nM
same,EC50,[5]; [11],0.89 ± 0.08 nM
same,vindesine ECMAX (sub-G1),[5],2.50 ± 0.27 nM
CC(=O)O[C@H]1C(=O)[C@@]2(C)[C@H]([C@H](OC(=O)c3ccccc3)[C@]3(O)C[C@H](OC(=O)[C@H](O)[C@@H](NC(=O)c4ccccc4)c4ccccc4)C(C)=C1C3(C)C)[C@]1(OC(C)=O)CO[C@@H]1C[C@@H]2O [paclitaxel],paclitaxel ECMAX (sub-G1),[1],3.32 ± 0.52 ng/mL
same,EC50,[1]; [12],2.96 ± 0.31 ng/mL
same,"paclitaxel ECMAX (sub-G1, maximal apoptosis)","[2]; A375, DMSO (no antagonist)",6.00 ± 0.63 ng/mL
same,EC50,[2]; [12],16.6 ± 2 ng/mL
same,EC50,[3]; [12],5.3 ± 0.6 ng/mL
same,paclitaxel ECMAX (sub-G1),[4],33.42 ± 3.55 ng/mL
same,EC50,[4]; [12],50.6 ± 5.3 ng/mL
same,EC50,[5]; [12],2.69 ± 0.28 ng/mL
same,paclitaxel ECMAX (sub-G1),[5],2.69 ± 0.23 ng/mL
same,"colony formation, % of the control",[6],64%
same,IC50,"[7]; Homo sapiens, SKMES, paclitaxel 0.0001-0.05 μg/ml, alone, read-out: IC50 of paclitaxel, A3 antagonist none",3.3 ng/mL
same,IC50,"[7]; Human Lung Carcinoma SKMES, read-out: IC50 growth inhibition, agent used separately",2.6 ± 0.7 ng/mL
same,IC50,"[8]; Homo sapiens, Panc-1, paclitaxel 0.0001-0.05 μg/ml, alone, read-out: IC50 of paclitaxel, A3 antagonist none",2.9 ng/mL
same,IC50,"[8]; Human Pancreatic Cancer Panc-1, read-out: IC50 growth inhibition, agent used separately",2.7 ± 0.3 ng/mL
same,"IC50 of paclitaxel, A3 antagonist none","[9]; A375, paclitaxel 0.0001-0.05 μg/ml, alone (control of each antagonist series)",4.2 ng/mL
same,IC50,"[9]; A-375, A375, paclitaxel 0.0001-0.05 μg/ml, alone (control of each antagonist series), read-out: IC50 of paclitaxel, A3 antagonist none",4.4 ng/mL
same,IC50,"[9]; A-375, A375, paclitaxel 0.0002-0.1 μg/ml, alone, read-out: IC50 of paclitaxel, A3 antagonist none",4.6 ng/mL
same,IC50,"[9]; A-375, Human Melanoma A375, read-out: IC50 growth inhibition, agent used separately",4 ± 0.2 ng/mL
same,IC50,"[10]; Human Colon Carcinoma HT29, read-out: IC50 growth inhibition, agent used separately",1.12 ± 0.3 ng/mL
same,IC50,"[10]; Homo sapiens, HT29, paclitaxel 0.0001-0.05 μg/ml, alone, read-out: IC50 of paclitaxel, A3 antagonist none",2.5 ng/mL
